According to ChEMBL document CHEMBL1139852, “A distinctive structural twist in the aminoimidazole alkaloids from a calcareous marine sponge: isolation and characterization of leucosolenamines A and B” (J Nat Prod, 2007):

Tests used:
Assay type in all cases: cell-based; call rule not given here
[1] = Selective cytotoxicity for mouse C38 cells over CFU-GM cells at 7.8 ug/disk; details: mc-38
MC-38 [2] = test: Cytotoxicity against mouse C38 cells at 7.8 ug/disk
[3] = Cytotoxicity against mouse CFU-GM cells at 7.8 ug/disk
[4] = Selective cytotoxicity for mouse C38 cells over CFU-GM cells at 180 ug/disk; details: mc-38
MC-38 [5] = test: Cytotoxicity against mouse C38 cells at 180 ug/disk
[6] = Cytotoxicity against mouse CFU-GM cells at 180 ug/disk

Compound	inhibition zone (IZ) [1] [mm]	inhibition zone (IZ) (MC-38 [2]) [mm]	inhibition zone (IZ) [3] [mm]	inhibition zone (IZ) [4] [mm]	inhibition zone (IZ) (MC-38 [5]) [mm]	inhibition zone (IZ) [6] [mm]	Activity (MC-38 [5])	Activity [6]
CO[C@@H](C(=O)N[C@H]1CCCCNC1=O)[C@H](O)[C@@H](O)[C@H](O)/C=C/C(C)C [BENGAMIDE E]	4.5	21	16.5	–	–	–	–	–
Cn1c(/N=C2\NC(=N)N=C2Cc2ccc3c(c2)OCO3)c(N)c(=O)n(C)c1=O [LEUCOSOLENAMINE A]	–	–	–	10.5	10.5	0	–	–
Cc1cn([C@H]2C[C@H](O)[C@@H](CO)O2)c(=O)[nH]c1=O [DOXRIBTIMINE]	–	–	–	0	–	–	Not Active	Not Active
